Reference: patent US11384381B2, “Reaction accelerating agent” (Kikkoman Corporation, priority 2016, dated 2022)

How the values were obtained:
[1] = tested on: sarcosine oxidase (SOD-TE); assay: Sarcosine detection reaction completed with excess sarcosine oxidase (Example 10); format: biochemical; settings: 0.04% (w/v) compound, 123 U/ml SOD-TE (excess), 32 μM sarcosine, pH 8.0, 37° C.; for ΔA9 min: change in A694-A751 9 minutes after mixing; for ΔA10 min: change in A694-A751 10 minutes after mixing, defined as ΔA100%
Method: In this Example, the amount of change in absorbance is determined when the detection reaction of the substrate sarcosine (N-methylglycine) was completed using an excess amount of sarcosine oxidase (SOD-TE), which is an oxidase.
A reagent for sarcosine measurement having the following composition was prepared, and the measurement of sarcosine using sarcosine oxidase was carried out using Bio Majesty JCA-BM 1650 (manufactured by JEOL Ltd.).
32 μM sarcosine (manufactured by Wako Pure Chemical Industries, Ltd.)
30 mM MOPS-NaOH buffer solution, pH 8.0
0.2% (v/v) NP-10 (manufactured by HELM)
(§1) 10 U/ml peroxidase PEO-301 (Toyobo Co., Ltd.)
(§2) 0.023 mM 10-(carboxymethylaminocarbonyl)-3,7-bis(dimethylamino)phenothiazine sodium (DA-67, manufactured by Wako Pure Chemical Industries, Ltd.)
0.04% (w/v) of the compound of Comparative Example 2, any one compound of the present invention, or compound-free (Comparative Example 1) ion-exchange water as shown in Table 1
10 mM MOPS-NaOH buffer solution, pH 8.0
123 U/ml SOD-TE (manufactured by Kikkoman Biochemifa Company)
8 μl of the sample was added to 96 μl of the first reagent-D, and the mixture was incubated at 37° C. for 5 minutes. Then, 24 μl of the second reagent-G was added thereto, and the quantitative reaction of hydrogen peroxide resulting from the oxidation of sarcosine was allowed to progress at 37° C. for 5 minutes. The absorbance (A694 and A751) of the reaction solution for light at wavelengths of 694 nm and 751 nm was measured over time for 10 minutes after the mixing of the sample with the first reagent-D to determine the value of subtraction of A751 from A694, i.e., the value A694/751. Subsequently, ΔA was calculated by subtracting, from A694/751, the value of (104/128) times […] 4.8 minutes after the mixing of the sample with the first reagent-D. Incidentally, 4.8 minutes after the mixing of the sample with the first reagent-D represents the time immediately before the addition of the second reagent-G. ΔA 9 minutes and 10 minutes after the mixing of the diluted sample with the first reagent-D (ΔA9min and ΔA10min) are shown in Table 7.
In other words, it can be recognized that the quantitative reaction of sarcosine, i.e., the quantitative reaction of hydrogen peroxide resulting from the oxidation of sarcosine, was completed in 10 minutes after the mixing of the diluted sample with the first reagent-D. Accordingly, in Examples 10 and 11, ΔA10min in each Comparative Example or the present invention was defined as ΔA when 100% of the quantitative reaction of sarcosine progressed under each condition (ΔA100%).

[2] = tested on: CFP-DH4 (A1cOX); assay: Acceleration of HbA1c detection reaction with small amount of A1cOX (Example 5); format: biochemical; settings: 0.04% (w/v) compound, 1.1 mg/ml CFP-DH4; for effect of accelerating the HbA1c detection reaction: versus not added; for Degree of progression of reaction (%) after 7.5 minutes / Degree of progression of reaction (%) after 10 minutes: HbA1c detection reaction, ΔA/ΔA100%; for Degree of progression of reaction (%) after 7.5 minutes: 2.5 minutes after addition of second reagent, not added: 51; for Degree of progression of reaction (%) after 10 minutes: 5 minutes after addition of second reagent, not added: 73
Method: Next, in this Example, the degree of acceleration of HbA1c detection reaction by the compound of the present invention was determined using a small amount of A1cOX.
A reagent for HbA1c measurement having the following composition was prepared, and the measurement of HbA1c was carried out using Bio Majesty JCA-BM1650 (manufactured by JEOL Ltd.).
Blood cells (10.4% HbA1c (NGSP value))
30 mM MOPS-NaOH buffer solution, pH 6.5
0.2% (w/v) n-dodecyl-3-D-maltoside (manufactured by Dojindo Laboratories)
as §1, §2
0.04% (w/v) of the compound of Comparative Example 2, any one compound of the present invention, or compound-free (Comparative Example 1) ion-exchange water as shown in Table 2
10 mM MOPS-NaOH buffer solution, pH 6.5
1.1 mg/ml CFP-DH4 (A cOX)
8 μl of the sample diluted 51-fold with ion-exchange water was added to 96 μl of the first reagent, and the mixture was incubated at 37° C. for 5 minutes. Then, 24 μl of the second reagent-B was added thereto, and the quantitative reaction of hydrogen peroxide resulting from the oxidation of the β-chain amino terminus of HbA1c was allowed to progress at 37° C. for 5 minutes. The absorbance ([…] and A751) of the reaction solution for light at wavelengths of 694 nm and 751 nm was measured over time for 10 minutes after the mixing of the diluted sample with the first reagent to determine the value of subtraction of A751 from A694, i.e., the value A694/751. Subsequently, ΔA was calculated by subtracting, from A694/751, the value of (104/128) times A694/751 4.8 minutes after the mixing of the diluted sample with the first reagent. Incidentally, […] after the mixing of the diluted sample with the first reagent represents the time immediately before the addition of the second reagent-B.
Next, ΔA calculated in this Example was divided by ΔA100% defined in Example 4 to calculate the degree of progression of HbA1c detection reaction. The degree of progression of HbA1c detection reaction 7.5 and 10 minutes after the mixing of the diluted sample with the first reagent (in other words, 2.5 and 5 minutes after the addition of the second reagent-B) is shown in Table 2.

Compound	ΔA9 min [1]	ΔA10 min [1]	effect of accelerating the HbA1c detection reaction [2]	Degree of progression of reaction (%) after 7.5 minutes [2] [%]	Degree of progression of reaction (%) after 10 minutes [2] [%]
O=C([O-])c1cc(N=Nc2ccc([N+](=O)[O-])cc2)ccc1O.[Na+] [Mordant Orange 1]	0.327	0.328	effect of accelerating the HbA1c detection reaction	80	94
O=C(O)c1cc(N=Nc2ccc3cc(S(=O)(=O)O)ccc3c2)ccc1O.[Na] [Chrome Yellow]	0.186	0.186	effect of accelerating the HbA1c detection reaction	53	77
Acid Red 151	0.212	0.212	effect of accelerating the HbA1c detection reaction	55	80
COc1cc(N=Nc2ccc(N)cc2)c(C)cc1N [Disperse Diazo Black 3BF]	0.156	0.156	–	–	–
COc1cc(N=Nc2cccc(S(=O)(=O)[O-])c2)ccc1NC(=O)Nc1ccc(N=Nc2ccc(O)c(C(=O)[O-])c2)cc1.[Na+].[Na+] [Direct Yellow 44]	0.315	0.315	effect of accelerating the HbA1c detection reaction	77	96
O=S(=O)([O-])c1cccc(N=Nc2ccc(Nc3ccccc3)cc2)c1.[Na+] [Acid Yellow 36]	–	–	effect of accelerating the HbA1c detection reaction	53	81
O=C([O-])c1cc(N=Nc2cccc([N+](=O)[O-])c2)ccc1O.[Na+] [Alizarin Yellow GG]	0.197	0.197	effect of accelerating the HbA1c detection reaction	76	91
Cc1nn(-c2cc(S(=O)(=O)[O-])ccc2Cl)c(O)c1N=Nc1ccccc1.[Na+] [Acid Yellow 34]	–	–	effect of accelerating the HbA1c detection reaction	75	95
Xylene Fast Yellow 2G	0.158	0.158	effect of accelerating the HbA1c detection reaction	58	83
